Measured values published in patent publication US20110166112A1, “METHOD FOR STIMULATING PLATELET PRODUCTION” (Eisai, Inc., priority 2009, published 2011).

Tested on: subjects with chronic ITP
Assay: Combined 28-day and 6-month rollover studies of E5501: safety (TEAEs, serious TEAEs, thromboembolic events, neoplasms, liver toxicity, discontinuations)
Format: in vivo, human
Excerpt: Primary Endpoint: The primary endpoint was to assess the safety and tolerability to E5501, including AEs and clinical laboratory parameters, over the 6 additional months of treatment.
In this way, safety data reflect each subject's complete duration of exposure to E5501 starting with lead-in the previous study and continuing into the current study.
Following Protocol Amendment 4, the current study contained a flexible dose regimen; therefore, this study was considered to have an open-label, uncontrolled, single-arm design. […] This was the method used to assess safety. • Grouping method B was based on both treatment received and day 28 platelet response to study drug in Study the previous study. This was the method used for the analysis of efficacy for the FAS and the SE population.
Overall Adverse Events. […] The primary focus is on summary statistics for the entire safety population and provides an overall safety profile for E5501. The summary statistics for each group, e.g., lower ⅓, middle ⅓ and upper ⅓ average daily dose levels, is secondary and provides further safety information across the 3 dose levels.

[1] = Middle ⅓ dose (≧8.85-<13.5 mg), N=22
[2] = Safety Population, Middle ⅓ Mean Daily Dose Level (≧8.85-<13.5 mg)
[3] = Upper ⅓ dose (≧13.5-≦25.7 mg), N=20

Compound: O=C(Nc1nc(-c2cc(Cl)cs2)c(N2CCN(C3CCCCC3)CC2)s1)c1cnc(N2CCC(C(=O)O)CC2)c(Cl)c1 [E5501, 1-(3-chloro-5-{[4-(4-chlorothiophen-2-yl)-5-(4-cyclohexylpiperazin-1-yl)thiazol-2-yl]carbamoyl}pyridine-2-yl)piperidine-4-carboxylic acid]
- Vomiting, % of subjects [1]: (9.1) %
- Vomiting, n of subjects [1]: 2
- Withdrawal due to TEAE, % of subjects [1]: (9.1) %
- Withdrawal due to TEAE, n of subjects [1]: 2
- Discontinuation in 501-CL-003, PC increase to ≧500,000/mm^3 (Safety Population, Lower ⅓ Mean Daily Dose Level (2.5-<8.85 mg)): 0 n
- Discontinuation in 501-CL-003, PC increase to ≧500,000/mm^3 [2]: 0 n
- Discontinuation in 501-CL-004, PC increase to ≧500,000/mm^3 [2]: 0 n
- Discontinuation in 501-CL-003, Adverse Event or SAE (Safety Population, Upper ⅓ Mean Daily Dose Level (≧13.5-≦25.7 mg)): 0 n
- Abdominal pain upper, % of subjects (Total E5501, N=64): (4.7) %
- Abdominal pain upper, n of subjects (Total E5501, N=64): 3
- Any TEAE, % of subjects (Total E5501, N=64): (96.9) %
- Any TEAE, n of subjects (Total E5501, N=64): 62
- Arthralgia, % of subjects (Total E5501, N=64): (14.1) %
- Arthralgia, n of subjects (Total E5501, N=64): 9
- Asthenia, % of subjects (Total E5501, N=64): (6.3) %
- Asthenia, n of subjects (Total E5501, N=64): 4
- Back pain, % of subjects (Total E5501, N=64): (9.4) %
- Back pain, n of subjects (Total E5501, N=64): 6
- Constipation, % of subjects (Total E5501, N=64): (4.7) %
- Constipation, n of subjects (Total E5501, N=64): 3
- Contusion, % of subjects (Total E5501, N=64): (18.8) %
- Contusion, n of subjects (Total E5501, N=64): 12
- Cough, % of subjects (Total E5501, N=64): (4.7) %
- Cough, n of subjects (Total E5501, N=64): 3
- Deaths, n of subjects (Total E5501, N=64): 0
- Diarrhoea, % of subjects (Total E5501, N=64): (14.1) %
- Diarrhoea, n of subjects (Total E5501, N=64): 9
- Dizziness, % of subjects (Total E5501, N=64): (7.8) %
- Dizziness, n of subjects (Total E5501, N=64): 5
- Dose interruption due to TEAE, % of subjects (Total E5501, N=64): (12.5) %
- Dose interruption due to TEAE, n of subjects (Total E5501, N=64): 8
- Dyspnoea, % of subjects (Total E5501, N=64): (9.4) %
- Dyspnoea, n of subjects (Total E5501, N=64): 6
- Ecchymosis, % of subjects (Total E5501, N=64): (6.3) %
- Ecchymosis, n of subjects (Total E5501, N=64): 4
- Epistaxis, % of subjects (Total E5501, N=64): (23.4) %
- Epistaxis, n of subjects (Total E5501, N=64): 15
- Fatigue, % of subjects (Total E5501, N=64): (34.4) %
- Fatigue, n of subjects (Total E5501, N=64): 22
- Gingival bleeding, % of subjects (Total E5501, N=64): (10.9) %
- Gingival bleeding, n of subjects (Total E5501, N=64): 7
- Headache, % of subjects (Total E5501, N=64): (32.8) %
- Headache, n of subjects (Total E5501, N=64): 21
- Insomnia, % of subjects (Total E5501, N=64): (7.8) %
- Insomnia, n of subjects (Total E5501, N=64): 5
- Migraine, % of subjects (Total E5501, N=64): (4.7) %
- Migraine, n of subjects (Total E5501, N=64): 3
- Mouth haemorrhage, % of subjects (Total E5501, N=64): (3.1) %
- Mouth haemorrhage, n of subjects (Total E5501, N=64): 2
- Nausea, % of subjects (Total E5501, N=64): (9.4) %
- Nausea, n of subjects (Total E5501, N=64): 6
- Pain in extremity, % of subjects (Total E5501, N=64): (9.4) %
- Pain in extremity, n of subjects (Total E5501, N=64): 6
- Petechiae, % of subjects (Total E5501, N=64): (9.4) %
- Petechiae, n of subjects (Total E5501, N=64): 6
- Platelet count increased, % of subjects (Total E5501, N=64): (9.4) %
- Platelet count increased, n of subjects (Total E5501, N=64): 6
- Serious TEAE, % of subjects (Total E5501, N=64): (7.8) %
- Serious TEAE, n of subjects (Total E5501, N=64): 5
- Serious treatment-related TEAEs, % of subjects (Total E5501, N=64): (3.1) %
- Serious treatment-related TEAEs, n of subjects (Total E5501, N=64): 2
- Severe (grade 3-4) TEAEs, % of subjects (Total E5501, N=64): (25.0) %
- Severe (grade 3-4) TEAEs, n of subjects (Total E5501, N=64): 16
- Somnolence, % of subjects (Total E5501, N=64): (3.1) %
- Somnolence, n of subjects (Total E5501, N=64): 2
- Suspected drug-related AEs, % of subjects (Total E5501, N=64): (64.1) %
- Suspected drug-related AEs, n of subjects (Total E5501, N=64): 41
- Upper respiratory tract infection, % of subjects (Total E5501, N=64): (9.4) %
- Upper respiratory tract infection, n of subjects (Total E5501, N=64): 6
- Vomiting, % of subjects (Total E5501, N=64): (10.0) %
- Vomiting, n of subjects (Total E5501, N=64): 7
- Withdrawal due to TEAE, % of subjects (Total E5501, N=64): (10.9) %
- Withdrawal due to TEAE, n of subjects (Total E5501, N=64): 7
- Abdominal pain upper, % of subjects [3]: (15.0) %
- Abdominal pain upper, n of subjects [3]: 3
- Any Serious TEAE, n (%) of subjects [3]: 1 (5.0) n (%)
- Any TEAE, % of subjects [3]: (100.0) %
- Any TEAE, n of subjects [3]: 20
- Arthralgia, % of subjects [3]: (20.0) %
- Arthralgia, n of subjects [3]: 4
- Asthenia, % of subjects [3]: (5.0) %
- Asthenia, n of subjects [3]: 1
- Back pain, % of subjects [3]: (15.0) %
- Back pain, n of subjects [3]: 3
- Constipation, n of subjects [3]: 0
- Contusion, % of subjects [3]: (30.0) %
- Contusion, n of subjects [3]: 6
- Cough, % of subjects [3]: (10.0) %
- Cough, n of subjects [3]: 2
- Deaths, n of subjects [3]: 0
- Diarrhoea, % of subjects [3]: (25.0) %
- Diarrhoea, n of subjects [3]: 5
- Dizziness, % of subjects [3]: (15.0) %
- Dizziness, n of subjects [3]: 3
